Patent US12685312B2, “Sulfonamide apyrase inhibitors” (Texas Crop Science, Inc., priority 2022, dated 2026)

Tested on: apyrase
Test: Screen for apyrase inhibitors (Method 1, in vitro phosphate-release absorbance assay)
Assay type: biochemical
Conditions: inhibitor conc at 1 mM stock, 1 hr room temperature, absorbance 630 nm; rounded average of two assay results
How it was run: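 Phosphate-release colorimetric assay (Windsor method) in 60 mM Hepes, 3 mM MgCl2, 3 mM CaCl2, 3 mM ATP, pH 6.5, with compound or DMSO control added. Released phosphate developed with ammonium molybdate and ascorbic acid/TCA, then stopped with citrate/acetic acid.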

Structure (SMILES) | % Inhibition of Apyrase
COc1ccccc1NS(=O)(=O)c1cccc(NC(=O)c2ccc(=O)n(Cc3ccccc3)n2)c1 [I-735, 1-benzyl-N-(3-(N-(2-methoxyphenyl)sulfamoyl)phenyl)-6-oxo-1,6-dihydropyridazine-3-carboxamide] | 53%
COc1ccc(NS(=O)(=O)c2cccc(NC(=O)c3n[nH]c(=O)c4ccccc34)c2)cc1 [I-736, N-(3-(N-(4-methoxyphenyl)sulfamoyl)phenyl)-4-oxo-3,4-dihydrophthalazine-1-carboxamide] | 53%
O=C(Nc1cccc(S(=O)(=O)Nc2ccc(Cl)cc2)c1)c1ccc(=O)n(Cc2ccccc2)n1 [I-737, 1-benzyl-N-(3-(N-(4-chlorophenyl)sulfamoyl)phenyl)-6-oxo-1,6-dihydropyridazine-3-carboxamide] | 53%
Cc1ccc(C(=O)Nc2cccc(S(=O)(=O)Nc3cccc(C(F)(F)F)c3)c2)cn1 [I-740, 6-methyl-N-(3-(N-(3-(trifluoromethyl)phenyl)sulfamoyl)phenyl)nico tinamide] | 51%
O=C(Nc1cccc(S(=O)(=O)Nc2cccc(Cl)c2)c1)c1ccccn1 [I-741, N-(3-(N-(3-chlorophenyl)sulfamoyl)phenyl)picolinamide] | 50%
COc1ccc(NS(=O)(=O)c2cccc(NC(=O)c3cc4c(s3)CCC4)c2)cc1 [I-742, N-(3-(N-(4-methoxyphenyl)sulfamoyl)phenyl)-5,6-dihydro-4H-cyclopenta[b]thiophene-2-carboxamide] | 50%
CSc1ncccc1C(=O)Nc1cccc(S(=O)(=O)N(C)c2ccccc2)c1 [I-743, N-(3-(N-methyl-N-phenylsulfamoyl)phenyl)-2-(methylthio)nicotinamide] | 49%
Cn1nc(C(=O)Nc2cccc(S(=O)(=O)Nc3cccc(C(F)(F)F)c3)c2)c2ccccc2c1=O [I-750, 3-methyl-4-oxo-N-(3-(N-(3-(trifluoromethyl)phenyl)sulfamoyl)phenyl)-3,4-dihydrophthalazine-1-carboxamide] | 41%
O=C(Nc1cccc(S(=O)(=O)Nc2ccccc2Cl)c1)c1cnccn1 [I-752, N-(3-(N-(2-chlorophenyl)sulfamoyl)phenyl)pyrazine-2-carboxamide] | 40%
CN(c1ccccc1)S(=O)(=O)c1cccc(NC(=O)c2ccc3ccccc3n2)c1 [I-754, N-(3-(N-methyl-N-phenylsulfamoyl)phenyl)quinoline-2-carboxamide] | 36%
CN(c1ccccc1)S(=O)(=O)c1cccc(NC(=O)c2ccc(=O)[nH]n2)c1 [I-755, N-(3-(N-methyl-N-phenylsulfamoyl)phenyl)-6-oxo-1,6-dihydropyridazine-3-carboxamide] | 33%
O=C(Nc1cccc(S(=O)(=O)Nc2ccccc2Cl)c1)c1cnc(Cl)c(Cl)c1 [I-756, 5,6-dichloro-N-(3-(N-(2-chlorophenyl)sulfamoyl)phenyl)nicotinamide] | 30%
O=C(Nc1cccc(S(=O)(=O)Nc2cccc(C(F)(F)F)c2)c1)c1cccnc1 [I-758, N-(3-(N-(3-(trifluoromethyl)phenyl)sulfamoyl)phenyl) nicotinamide] | 28%
O=C(Nc1cccc(S(=O)(=O)Nc2cccc(C(F)(F)F)c2)c1)c1ccco1 [I-759, N-(3-(N-(3-(trifluoromethyl)phenyl)sulfamoyl)phenyl) furan-2-carboxamide] | 28%
COc1ccccc1NS(=O)(=O)c1cccc(NC(=O)c2ccc(C)s2)c1 [I-761, N-(3-(N-(2-methoxyphenyl)sulfamoyl)phenyl)-5-methylthiophene-2-carboxamide] | 17%
O=C(Nc1cccc(S(=O)(=O)Nc2ccc(Cl)cc2)c1)c1ccc(Cl)nc1 [I-764, 6-chloro-N-(3-(N-(4-chlorophenyl)sulfamoyl)phenyl)nicotinamide] | 15%
CCOc1ccc(NS(=O)(=O)c2cccc(NC(=O)c3ccncc3)c2)cc1Br [I-765, N-(3-(N-(3-bromo-4-ethoxyphenyl)sulfamoyl)phenyl) isonicotinamide] | 15%
COc1ccccc1NS(=O)(=O)c1cccc(NC(=O)c2cncc(Br)c2)c1 [I-766, 5-bromo-N-(3-(N-(2-methoxyphenyl)sulfamoyl)phenyl) nicotinamide] | 14%
Cc1cnc(C(=O)Nc2cccc(S(=O)(=O)N(C)c3ccccc3)c2)cn1 [I-767, 5-methyl-N-(3-(N-methyl-N-phenylsulfamoyl)phenyl)pyrazine-2-carboxamide] | 12%
COc1ccccc1NS(=O)(=O)c1cccc(NC(=O)c2cccnc2OC)c1 [I-770, 2-methoxy-N-(3-(N-(2-methoxyphenyl)sulfamoyl)phenyl) nicotinamide] | 6%
O=C(Nc1cccc(S(=O)(=O)Nc2ccc(SC(F)F)cc2)c1)c1ccco1 [I-772, N-(3-(N-(4-((difluoromethyl)thio)phenyl)sulfamoyl)phenyl) furan-2-carboxamide] | 6%
CN(c1ccccc1)S(=O)(=O)c1cccc(NC(=O)c2cc(C3CC3)on2)c1 [I-773, 5-cyclopropyl-N-(3-(N-methyl-N-phenylsulfamoyl)phenyl)isoxazole-3-carboxamide] | 3%
COc1ccccc1NS(=O)(=O)c1cccc(NC(=O)c2ccc(=O)n(C)n2)c1 [I-774, N-(3-(N-(2-methoxyphenyl)sulfamoyl)phenyl)-1-methyl-6-oxo-1,6-dihydropyridazine-3-carboxamide] | 3%
O=C(Nc1cccc(S(=O)(=O)Nc2ccc(Cl)cc2)c1)c1cnccn1 [I-775, N-(3-(N-(4-chlorophenyl)sulfamoyl)phenyl)pyrazine-2-carboxamide] | 3%
O=C(Nc1cccc(S(=O)(=O)Nc2ccccc2F)c1)c1cccs1 [I-776, N-(3-(N-(2-fluorophenyl)sulfamoyl)phenyl)thiophene-2-carboxamide] | 1%
CN(c1ccccc1)S(=O)(=O)c1ccccc1C(=O)Nc1ccc(Cl)cc1F [I-808, N-(4-chloro-2-fluorophenyl)-2-(N-methyl-N-phenylsulfamoyl)benzamide] | 80%

Second part, the molecule after the results:

% Inhibition of Apyrase | Structure (SMILES)
52% | Cc1ccc(Br)c(NS(=O)(=O)c2cccc(NC(=O)c3ccc(C)nc3)c2)c1 [I-738, N-(3-(N-(2-bromo-5-methylphenyl)sulfamoyl)phenyl)-6-methylnicotinamide]
52% | CN(c1ccccc1)S(=O)(=O)c1cccc(NC(=O)c2cc(Cl)nc3ccccc23)c1 [I-739, 2-chloro-N-(3-(N-methyl-N-phenylsulfamoyl)phenyl)quinoline-4-carboxamide]
49% | Cc1cnc(C(=O)Nc2cccc(S(=O)(=O)Nc3cccc(Cl)c3)c2)cn1 [I-744, N-(3-(N-(3-chlorophenyl)sulfamoyl)phenyl)-5-methylpyrazine-2-carboxamide]
46% | O=C(Nc1cccc(S(=O)(=O)Nc2ccccc2Cl)c1)c1ccccn1 [I-745, N-(3-(N-(2-chlorophenyl)sulfamoyl)phenyl)picolinamide]
45% | O=C(Nc1cccc(S(=O)(=O)Nc2ccccc2Cl)c1)c1ccc(Cl)nc1 [I-746, 6-chloro-N-(3-(N-(2-chlorophenyl)sulfamoyl)phenyl)nicotinamide]
44% | Cc1occc1C(=O)Nc1cccc(S(=O)(=O)Nc2cccc(C(F)(F)F)c2)c1 [I-747, 2-methyl-N-(3-(N-(3-(trifluoromethyl)phenyl)sulfamoyl)phenyl) furan-3-carboxamide]
42% | Cc1cc(C(=O)Nc2cccc(S(=O)(=O)N(C)c3ccccc3)c2)on1 [I-748, 3-methyl-N-(3-(N-methyl-N-phenylsulfamoyl)phenyl)isoxazole-5-carboxamide]
41% | COc1ccc(NS(=O)(=O)c2cccc(NC(=O)c3ccc(Cl)s3)c2)cc1 [I-749, 5-chloro-N-(3-(N-(4-methoxyphenyl)sulfamoyl)phenyl)thiophene-2-carboxamide]
41% | CCOc1ccc(NS(=O)(=O)c2cccc(NC(=O)c3cccnc3)c2)cc1Br [I-751, N-(3-(N-(3-bromo-4-ethoxyphenyl)sulfamoyl)phenyl)nicotinamide]
37% | COc1cc(C(=O)Nc2cccc(S(=O)(=O)N(C)c3ccccc3)c2)ncn1 [I-753, 6-methoxy-N-(3-(N-methyl-N-phenylsulfamoyl)phenyl)pyrimidine-4-carboxamide]
29% | CCOc1ncccc1C(=O)Nc1cccc(S(=O)(=O)Nc2ccccc2OC)c1 [I-757, 2-ethoxy-N-(3-(N-(2-methoxyphenyl)sulfamoyl)phenyl) nicotinamide]
26% | COc1ccc(C(=O)Nc2cccc(S(=O)(=O)Nc3nccs3)c2)cc1[N+](=O)[O-] [I-760, 4-methoxy-3-nitro-N-(3-(N-(thiazol-2-yl)sulfamoyl)phenyl)benzamide]
16% | O=C(Nc1cccc(S(=O)(=O)Nc2cccc(C(F)(F)F)c2)c1)c1ccoc1 [I-762, N-(3-(N-(3-(trifluoromethyl)phenyl)sulfamoyl)phenyl) furan-3-carboxamide]
15% | CN(c1ccccc1)S(=O)(=O)c1cccc(NC(=O)c2nn(C)c(=O)c3ccccc23)c1 [I-763, 3-methyl-N-(3-(N-methyl-N-phenylsulfamoyl)phenyl)-4-oxo-3,4-dihydrophthalazine-1-carboxamide]
7% | CN(c1ccccc1)S(=O)(=O)c1cccc(NC(=O)c2ccncc2)c1 [I-768, N-(3-(N-methyl-N-phenylsulfamoyl)phenyl)isonicotinamide]
7% | Cc1cnc(C(=O)Nc2cccc(S(=O)(=O)Nc3cccc(C(F)(F)F)c3)c2)cn1 [I-769, 5-methyl-N-(3-(N-(3-(trifluoromethyl)phenyl)sulfamoyl)phenyl) pyrazine-2-carboxamide]
6% | COc1ccc(NS(=O)(=O)c2cccc(NC(=O)c3cccs3)c2)cc1 [I-771, N-(3-(N-(4-methoxyphenyl)sulfamoyl)phenyl)thiophene-2-carboxamide]
